According to patent US20160297830A1, “NOVEL COMPOUNDS USEFUL FOR THE TREATMENT OF BACTERIAL INFECTIOUS DISEASES” (GALAPAGOS NV, priority 2013, published 2016):
Converted amounts (≈) assume the structure as drawn. Read-outs that look alike come from different tables or passages of the source.

Assays:
[1] = system: S. aureus Sa1 ATCC 13709; assay: microbe, parasite or virus in culture; type: cell-based; details: Staphylococcus aureus
[2] = system: S. aureus Sa26 ATCC 25923; assay: Antibacterial activity assay (MIC), S. aureus Sa26; type: cell-based; details: Staphylococcus aureus
[3] = system: S. aureus Sa4 NCTC 6571; assay: Antibacterial activity assay (MIC), S. aureus Sa4; type: cell-based; details: Staphylococcus aureus
[4] = system: S. aureus Sa2 clinical strain NCIMB 41953, MRSA; assay: microbe, parasite or virus in culture; type: cell-based; details: Staphylococcus aureus, read-out: MIC Sa2
[5] = system: H. influenza Hi3 ATCC 31517; assay: organism not typed; type: cell-based; details: read-out: MIC Hi3
[6] = system: H. influenza Hi10 clinical strain; assay: organism not typed; type: cell-based; details: read-out: MIC Hi10
[7] = system: H. influenza Hi47 clinical strain, Ampicillin Resistant; assay: organism not typed; type: cell-based; details: read-out: MIC Hi47
[8] = system: H. influenza Hi106 ATCC 51907; assay: organism not typed; type: cell-based; details: read-out: MIC Hi106
[9] = system: E. coli Ec1 ATCC 25922; assay: Antibacterial activity assay (MIC), E. coli Ec1; type: cell-based; details: Escherichia coli
[10] = system: E. coli Ec50 efflux pump KO; assay: microbe, parasite or virus in culture; type: cell-based; details: Escherichia coli, read-out: MIC Ec50 efflux pump KO
[11] = system: E. coli Ec113 efflux pump KO; assay: microbe, parasite or virus in culture; type: cell-based; details: Escherichia coli, read-out: MIC Ec113 efflux pump KO
[12] = target: DNA Polymerase IIIα (DnaE) from Staphylococcus aureus (Staphylococcus aureus, UniProt Q6GG04); assay: biochemical
Chain of DNA Polymerase IIIα (DnaE) from Staphylococcus aureus (Q6GG04 1-1022): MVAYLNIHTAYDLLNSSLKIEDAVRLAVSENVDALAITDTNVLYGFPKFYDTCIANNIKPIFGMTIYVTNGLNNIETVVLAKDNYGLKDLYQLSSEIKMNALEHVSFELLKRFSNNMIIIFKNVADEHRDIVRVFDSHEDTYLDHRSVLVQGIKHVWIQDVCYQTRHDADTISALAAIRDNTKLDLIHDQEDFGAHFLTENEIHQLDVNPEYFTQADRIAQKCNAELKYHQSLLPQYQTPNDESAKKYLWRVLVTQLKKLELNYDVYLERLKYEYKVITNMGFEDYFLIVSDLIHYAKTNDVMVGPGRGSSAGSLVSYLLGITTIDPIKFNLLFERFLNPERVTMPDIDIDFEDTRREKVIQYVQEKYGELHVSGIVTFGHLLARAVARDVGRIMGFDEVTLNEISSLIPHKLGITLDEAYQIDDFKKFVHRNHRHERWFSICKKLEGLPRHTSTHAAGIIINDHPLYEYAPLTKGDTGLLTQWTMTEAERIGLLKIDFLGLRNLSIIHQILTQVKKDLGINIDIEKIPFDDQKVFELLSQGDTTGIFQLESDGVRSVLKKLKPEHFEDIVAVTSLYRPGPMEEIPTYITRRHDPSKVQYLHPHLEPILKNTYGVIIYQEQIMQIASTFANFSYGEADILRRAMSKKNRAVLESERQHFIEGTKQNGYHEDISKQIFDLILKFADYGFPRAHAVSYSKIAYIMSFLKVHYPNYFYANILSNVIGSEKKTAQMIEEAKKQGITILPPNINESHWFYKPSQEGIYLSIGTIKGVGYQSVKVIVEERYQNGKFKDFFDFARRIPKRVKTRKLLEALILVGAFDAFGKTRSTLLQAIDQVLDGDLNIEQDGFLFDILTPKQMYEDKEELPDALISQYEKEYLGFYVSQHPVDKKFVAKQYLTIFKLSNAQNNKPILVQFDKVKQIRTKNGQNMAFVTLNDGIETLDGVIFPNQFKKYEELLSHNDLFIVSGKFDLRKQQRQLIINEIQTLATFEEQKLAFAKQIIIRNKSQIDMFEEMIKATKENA

[13] = target: DNA III Polymerase E (Escherichia coli, UniProt P10443); assay: In vitro activity against DNA III Polymerase E, E. coli; type: biochemical; details: DNA polymerase III, E. coli; read-out: IC50 semiquantitative scoring, E. coli
Chain of DNA III Polymerase E (P10443 whole entry): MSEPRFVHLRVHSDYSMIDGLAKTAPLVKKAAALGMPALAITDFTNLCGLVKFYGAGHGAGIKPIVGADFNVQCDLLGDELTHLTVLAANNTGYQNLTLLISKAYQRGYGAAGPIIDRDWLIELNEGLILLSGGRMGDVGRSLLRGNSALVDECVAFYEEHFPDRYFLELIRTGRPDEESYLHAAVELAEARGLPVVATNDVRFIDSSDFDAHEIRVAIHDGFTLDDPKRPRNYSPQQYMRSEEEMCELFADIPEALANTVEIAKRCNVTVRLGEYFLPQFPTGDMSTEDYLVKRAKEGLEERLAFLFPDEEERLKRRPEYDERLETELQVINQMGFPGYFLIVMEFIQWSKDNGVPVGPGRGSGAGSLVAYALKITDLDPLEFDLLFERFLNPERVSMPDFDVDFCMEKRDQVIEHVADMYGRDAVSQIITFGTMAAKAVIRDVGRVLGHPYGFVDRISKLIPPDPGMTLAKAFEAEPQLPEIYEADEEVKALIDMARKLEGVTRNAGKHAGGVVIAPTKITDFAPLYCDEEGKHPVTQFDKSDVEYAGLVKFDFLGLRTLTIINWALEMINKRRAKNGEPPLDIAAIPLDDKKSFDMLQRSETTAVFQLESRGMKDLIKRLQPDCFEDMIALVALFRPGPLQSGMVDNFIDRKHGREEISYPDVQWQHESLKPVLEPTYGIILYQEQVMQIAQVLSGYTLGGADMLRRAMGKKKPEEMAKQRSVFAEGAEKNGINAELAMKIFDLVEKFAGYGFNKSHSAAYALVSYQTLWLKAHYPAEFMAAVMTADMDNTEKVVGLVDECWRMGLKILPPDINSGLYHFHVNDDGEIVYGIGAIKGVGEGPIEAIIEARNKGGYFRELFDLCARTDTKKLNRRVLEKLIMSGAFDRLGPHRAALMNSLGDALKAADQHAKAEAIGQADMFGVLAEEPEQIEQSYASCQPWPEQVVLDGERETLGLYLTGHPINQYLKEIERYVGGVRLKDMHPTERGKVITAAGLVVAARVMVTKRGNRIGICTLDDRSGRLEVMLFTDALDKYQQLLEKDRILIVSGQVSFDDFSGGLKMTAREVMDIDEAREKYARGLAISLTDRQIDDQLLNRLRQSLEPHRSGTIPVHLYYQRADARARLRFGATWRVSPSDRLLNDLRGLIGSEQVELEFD
Description: A radioactive filterplate assay was used to assess inhibitory activity of compounds on DNA Polymerase IIIα. Five μL of a dilution series of compound, starting from 100 μM highest concentration, 1/5 dilution, was added to the wells of a 96 well plate. Recombinant enzyme was diluted to 0.47 μg/mL in a buffer containing 20 mM Tris pH7.5, 8 mM DTT, 10 mM MgOAc, 0.05% CHAPS and 10 μL thereof was added to the compound dilutions. The reaction was started with the addition of 10 μL substrate in the same buffer, containing activated calf thymus DNA (Sigma, D4522), dATP, dGTP, dCTP, dTTP (Invitrogen) and [α-33P]-dTTP (Perkin Elmer, NEG605H001) at a concentration of 62.5 μg/mL, 50 nM and 7.5 μCi/mL respectively. The mixture was incubated at 30° C. for 120 minutes and terminated by addition of phosphoric acid. Samples were transferred to filter plates and incorporated radioactivity was measured by the Topcount. Data were converted to percent inhibition with respect to positive and negative controls. IC50 values were calculated using Graph Prism™ software.

[14] = system: Methicillin Resistant S. aureus Sa2 (MRSA); assay: animal or person; type: in vivo; details: Study 1, 50 mg/kg PO BID, sample 24 h post infection, lung
[15] = ATCC13709, S. aureus Sa1 ATCC 13709, sensitive strain, Mueller-Hinton Broth, 37° C., read-out: MIC Sa1
[16] = ATCC25923, read-out: MIC Sa26 + 10% SH, S. aureus Sa26 + 10% SH
[17] = ATCC25923, read-out: MIC Sa26 + 50% SH, S. aureus Sa26 + 50% SH
[18] = ATCC25923, S. aureus Sa26 ATCC 25923, sensitive strain, Mueller-Hinton Broth, 37° C., read-out: MIC Sa26
[19] = NCTC6571, S. aureus Sa4 NCTC 6571, sensitive strain, read-out: MIC Sa4
[20] = ATCC25922, E. coli Ec1 ATCC 25922, sensitive strain, read-out: MIC Ec1
[21] = ATCC25923, read-out: MIC Sa26 + 10% SH
[22] = ATCC25923, read-out: MIC Sa26 + 50% SH

Row | Structure (SMILES) | MIC [1, 15] | MIC [2, 16] | MIC [2, 17] | MIC [2, 18] | MIC [3, 19] | MIC [4] | MIC [5] | MIC [6] | MIC [7] | MIC [8] | MIC [10] | MIC [11] | IC50 [12] | IC50 [13] | MIC ([1]; ATCC13709, read-out: MIC Sa1) | MIC ([2]; ATCC25923, read-out: MIC Sa26) | MIC [2, 21] | MIC [2, 22] | MIC ([3]; NCTC6571, read-out: MIC Sa4) | MIC ([9]; ATCC25922, read-out: MIC Ec1) | further results
1 | COCC(=NO)[C@H]1OC(=O)[C@H](COC)[C@H]2C=C[C@H]3[C@H]4O[C@]2(/C(C)=C/[C@H]1C)[C@@H]3[C@H](O)[C@@H](COC)[C@H]4OC(=O)c1ccc[nH]1 [Compound 25, 18-Deoxy-18-oximino-8-O-1H-pyrrole-2′-carbonylbranimycin] | 0.25 µg/mL (≈ 0.425 µM) | 0.5 µg/mL | 1 µg/mL | 0.5 µg/mL (≈ 0.849 µM) | 0.25 µg/mL (≈ 0.425 µM) | ≤ 0.06 µg/mL | > 64 µg/mL | > 64 µg/mL | > 64 µg/mL | > 64 µg/mL | 0.5 µg/mL (≈ 0.849 µM) | 0.25 µg/mL (≈ 0.425 µM) | 1.7 to 1700 nM | 1700 to 17000 nM |  |  |  |  |  |  | MIC [9, 20]: > 64 µg/mL; log reduction at 50 mg/kg ([14]; Staphylococcus aureus, MRSA, in Mus musculus, read-out: Log reduction vs. untreated): 0.36; Active [14]: N
2 | COC[C@@H]1[C@@H](O)[C@@H]2[C@H]3C=C[C@@H]4[C@@H](COC)C(=O)O[C@H]([C@H](O)COC)[C@H](C)/C=C(\C)[C@@]24O[C@H]3[C@@H]1OC(=O)c1cc(C#N)c[nH]1 [Compound 26, 8-O-4-Cyano-1H-pyrrole-2′-carbonylbranimycin] |  |  |  |  |  | 64 µg/mL (≈ 107 µM) | > 128 µg/mL | > 128 µg/mL | > 128 µg/mL | > 128 µg/mL | 2 µg/mL (≈ 3.33 µM) | 4 µg/mL (≈ 6.66 µM) | 1.66 to 1660 nM | 1660 to 16600 nM | 64 µg/mL (≈ 107 µM) | 128 µg/mL (≈ 213 µM) | 128 µg/mL | 64 µg/mL | 64 µg/mL (≈ 107 µM) | > 128 µg/mL | 
3 | COCC(=NO)[C@H]1OC(=O)[C@H](COC)[C@H]2C=C[C@H]3[C@H]4O[C@]2(/C(C)=C/[C@H]1C)[C@@H]3[C@H](O)[C@@H](COC)[C@H]4OC(=O)c1cc(F)c[nH]1 [Compound 40, 18-Deoxy-18-oximino-8-O-4-Fluoro-1H-pyrrole-2′-carbonylbranimycin] | 0.25 µg/mL (≈ 0.412 µM) | 1 µg/mL | 1 µg/mL | 1 µg/mL (≈ 1.65 µM) | 0.12 µg/mL (≈ 0.198 µM) | 0.25 µg/mL (≈ 0.412 µM) | > 64 µg/mL | 64 µg/mL (≈ 105 µM) | > 64 µg/mL | > 64 µg/mL | 16 µg/mL (≈ 26.4 µM) | 0.25 µg/mL (≈ 0.412 µM) | 1.65 to 1650 nM | 1.65 to 1650 nM |  |  |  |  |  |  | MIC [9, 20]: > 64 µg/mL
4 | COC[C@@H]1[C@@H](O)[C@@H]2[C@H]3C=C[C@@H]4C[C@H](O)C(=O)O[C@H]([C@H](O)COC)[C@H](C)/C=C(\C)[C@@]24O[C@H]3[C@@H]1OC(=O)c1ccc[nH]1 [Nargenicin B1, reference compound] |  |  |  |  |  | 0.5 µg/mL (≈ 0.89 µM) | > 64 µg/mL | > 64 µg/mL | > 64 µg/mL | > 64 µg/mL | 16 µg/mL (≈ 28.5 µM) | 2 µg/mL (≈ 3.56 µM) | 1.78 to 1780 nM | > 17800 nM | 1 µg/mL (≈ 1.78 µM) | 2 µg/mL (≈ 3.56 µM) | 2 µg/mL | 1 µg/mL | 0.5 µg/mL (≈ 0.89 µM) | > 64 µg/mL | 
5 | CO[C@H]1C[C@H]2C=C[C@H]3[C@H]4O[C@]2(/C(C)=C/[C@@H](C)[C@@H]([C@@H](C)O)OC1=O)[C@@H]3[C@H](O)[C@@H](C)[C@H]4O [Nodusmicin, reference compound] |  |  |  |  |  | > 64 µg/mL | 64 µg/mL (≈ 151 µM) | 64 µg/mL (≈ 151 µM) | 32 µg/mL (≈ 75.7 µM) | 64 µg/mL (≈ 151 µM) | 1 µg/mL (≈ 2.37 µM) | 0.25 µg/mL (≈ 0.592 µM) | 2.37 to 2370 nM | 2370 to 23700 nM | > 64 µg/mL | > 64 µg/mL | > 64 µg/mL | > 64 µg/mL | > 64 µg/mL | > 64 µg/mL | 
